Data reported in patent publication US20080070939A1, “LOCAL […] COMPOSITIONS CONTAINING DEXTROROTATORY MORPHINAN DERIVATIVES OR PHARMACEUTICALLY ACCEPTABLE SALTS THEREOF” (CHI MEI FOUNDATION HOSPITAL, priority 2006, published 2008).
Counter-ions that a name gives are not always drawn. Like-named read-outs stand apart in the source and are kept apart here.

How the values were obtained:
sciatic nerve = experiment: Sciatic nerve blockade after injection at the sciatic nerve notch in rats; type: in vivo; parameters: AUC of time-% PE curve, sciatic nerve blockade of motor function / AUC of time-% PE curve, sciatic nerve blockade of proprioception / AUC of time-% PE curve, sciatic nerve blockade of nociceptive reaction: unit not given beside the values; conditions: for ED50: Rattus norvegicus
Experimental: Male Sprague-Dawley rats (weighing about 300 to 350 g); for each dose of each drug, n=6.
In brief, the rats were slightly anesthetized by inhalation of a low concentration of sevoflurane. Then, 200 μL of tested drugs were injected at the sciatic nerve notch at the left hind limb of the rat using a 27-gauge needle connected to a tuberculin syringe (Becton Dickinson, USA, model BND309623-BX). Thereafter, development of sciatic nerve blockade was observed from the paralysis of the left hind limb of the rat. The right hind limb served as a control during the subsequent functional assay
For proprioception, the front half of the rat body and the right hind limb were off the ground at the same time so that the rat was standing on the left hind limb during the measurement.
The differences resided in that: The sciatic nerve notch injections of ED25, ED50 and ED75 were conducted based on the method described in the preceding section “A. Drug injection” of this example. Evaluations of motor function, proprioception and nociceptive reaction were conducted based on the method described in section “B. Neurobehavioral evaluations” of this example.
The differences resided in that: Before the statistical analysis, Shapiro-Wilk test was used to evaluate whether the data were, theoretically, normally distributed.

Male Sprague-Dawley rats = experiment: Infiltrative cutaneous anesthesia (inhibition of cutaneous trunci muscle reflex, CTMR) after subcutaneous injection in rats; type: in vivo
Experimental: Male Sprague-Dawley rats (weighing about 200 to 250 g); for each dose of each drug, n=8.
In brief, hairs on the dorsal surface (about 10×10 cm^2) of the thoracolumbar region of the rat were shaved, and the shaved surface was sterilized with iodine for preparation. To reduce the number of animals used, the back of the rat was further divided into left and right parts. One drug was injected first at the right part. After a washout period of one week, another drug was injected at the left part.
0.6 mL of drug was injected subcutaneously under the dorsal surface of the thoracolumbar region of the rat using a 30-gauge needle attached to a syringe (Becton Drive, Franklin Lakes, USA). The subcutaneous injection would result in a circular elevation (i.e., a wheal) of the skin, about 2 cm in diameter. The elevation was marked with ink within 1 minute after injection.
CTMR refers to the reflex movement of the skin of the back caused by twitching of the lateral thoracispinal muscle in response to local dorsal cutaneous stimulation. Essentially, a von Frey filament (No.15; Somedic Sales AB, Sweden) to which a cut end of an 18-gauge needle was affixed was used to produce a standard nociceptive stimulus (strength: 19 g). Six pinpricks (at a frequency of 0.5-1 Hz) were applied to a single marked wheal during each test. […] For example, absence of any response to all of the 6 pinpricks was defined as a complete nociceptive block (i.e., 100% MPE).
The difference resided in that subcutaneous injections of ED25, ED50 and ED75 of the drugs were performed based on the method described in the section “A. Drug injection” of this example, and evaluation of the infiltrative cutaneous anesthetic effect was performed based on the method described in the section “B. Neurobehavioral evaluation” of this example.

[1] = Systemic safety indices: mortality 24 hours after intraperitoneal injection in rats; conditions: rat, in vivo, ip
Experimental: (§1) Essentially, each drug was injected intraperitoneally into the rats (n=8). The number of dead rats was observed after 24 hours, and the rate of mortality (%) was calculated. Thereafter, the doses of each drug and the relative mortality were plotted to obtain dose-mortality curves of the drugs. […] The safety index (LD50/ED50) of each drug was calculated using the LD50 thus obtained and the ED50 obtained in the section “C. Potency evaluation” of this example.

rats = experiment: as above
Experimental: as §1

[2] = dosage of 6.7 mg/kg, sciatic nerve notch injection, rats
[3] = rats, 2ED50 when administered independently, ED50 of each drug when co-administered, mean ± SEM
[4] = same effective doses (ED25, ED50 or ED75), rats
[5] = infiltrative cutaneous anesthesia, rats, 2ED50 when administered independently, ED50 for co-administration, mean ± SEM
[6] = infiltrative cutaneous anesthesia, subcutaneous injection, rats
[7] = subcutaneous dose of ED75, rats, mean±SEM

With `COc1ccc2c(c1)[C@]13CCCC[C@@H]1[C@H](C2)N(C)CC3` [Dextromethorphan hydrobromide monohydrate] the “sciatic nerve blocking effect on nociceptive reaction compared with motor function” value (sciatic nerve; ED50 basis, p<0.01, rats) was “more potent sciatic nerve blocking effect on nociceptive reaction than on motor function”, the ED50 (sciatic nerve; read-out: Mean ED50) was 3.72 mg/kg and the ED50 (sciatic nerve; read-out: Motor function ED50 (95% CI)) was 3.95 mg/kg. The ED50 (sciatic nerve; read-out: Nociceptive reaction ED50 (95% CI)) was 3.49 mg/kg, the ED50 (sciatic nerve; read-out: Proprioception ED50 (95% CI)) was 3.73 mg/kg and the “% MPE of sciatic nerve blockade of motor function” value (sciatic nerve; [2]) was “about 71±7 % MPE”. The “% MPE of sciatic nerve blockade of nociceptive reaction” value (sciatic nerve; [2]) was about 83±11 % MPE, the “% MPE of sciatic nerve blockade of proprioception” value (sciatic nerve; [2]) was about 78±7 % MPE and the “duration of sciatic nerve blockade of motor function” value (sciatic nerve; [2]) was “about 77±10 minutes”. For the same compound, the “duration of sciatic nerve blockade of nociceptive reaction” value (sciatic nerve; [2]) was about 85 ± 11 min, the “duration of sciatic nerve blockade of proprioception” value (sciatic nerve; [2]) was about 78 ± 8 min and the “effect of co-administration with lidocaine hydrochloride on sciatic nerve blockades” value (sciatic nerve; rats, ED50 of each drug) was “additive effect”. The “AUC of time-% PE curve, sciatic nerve blockade of motor function” value (sciatic nerve; [3]) was 4056 ± 212, the “AUC of time-% PE curve, sciatic nerve blockade of nociceptive reaction” value (sciatic nerve; [3]) was 6295 ± 643 and the “AUC of time-% PE curve, sciatic nerve blockade of proprioception” value (sciatic nerve; [3]) was 5498 ± 507. For the same compound, the “duration of sciatic nerve blockade compared with lidocaine hydrochloride” value (sciatic nerve; [4]) was “longer reaction duration”, the ED50 (Male Sprague-Dawley rats; Rattus norvegicus, sc, infiltrative cutaneous anesthesia, subcutaneous injection, rats, read-out: ED50 (95% CI)) was 2.05 mg/kg and the “% MPE” value (Male Sprague-Dawley rats; [5]) was 67 ± 8 % MPE. For the same compound, the “AUC (% min.)” value (Male Sprague-Dawley rats; [5]) was 2300 ± 440 % min, the “Duration” value (Male Sprague-Dawley rats; [5]) was 58 ± 4 min and the ED25 (Male Sprague-Dawley rats; [6]) was 1.35 mg/kg. For the same compound, the ED75 (Male Sprague-Dawley rats; [6]) was 3.11 mg/kg, the “duration of cutaneous anesthesia compared with lidocaine hydrochloride” value (Male Sprague-Dawley rats; [4]) was “longer duration” and the “% MPE of cutaneous nociceptive block” value (Male Sprague-Dawley rats; [7]) was 71±8 % MPE. For the same compound, the “duration of cutaneous nociceptive block” value (Male Sprague-Dawley rats; [7]) was “approximately 50±5 minutes”, the “effect of co-administration with lidocaine hydrochloride on cutaneous nociceptive blockade” value (Male Sprague-Dawley rats; subcutaneous, rats, ED50 of each drug) was “additive effect” and the LD50 at 24 h [1] was 138 mg/kg. The “systemic safety index relative to that of lidocaine hydrochloride” value (rats; LD50/ED50, rats) was 2.4 times and the “safety index LD50/ED50” value (rats; LD50 intraperitoneal / ED50 of infiltrative cutaneous anesthesia, rats) was 67.3.
